Assay results: US20150050388A1, “SYNBIOTIC FOOD COMPOSITION CONTAINING TAGATOSE AND PROBIOTIC LACTIC ACID BACTERIA” (CJ CHEILJEDANG CORPORATION, priority 2012, published 2015)

Key:
[1] = system: lactic acid bacteria strains efficiently using tagatose; assay: Growth curves of lactic acid bacteria on other prebiotics (Example 3); type: cell-based; details: 9 strains, 37° C., live cell count at 0, 5, 10, 24 and 48 hours
Protocol: Capacity of using other prebiotics except for tagatose was evaluated, compared and analyzed using 9 strains having excellent capacity of using tagatose among the 19 strains identified in Example 2.
For the present evaluation, at the time of preparing the medium used in Example 1, as a positive control group, glucose was used except for tagatose, and as negative control groups, fructooligosaccharide, lactitol, lactulose, and xylitol were used.
Each of the Lactobacillus casei (FIG. 1), Lactobacillus casei Shirota (FIG. 2), Lactobacillus casei DN114001 (FIG. 3), Lactobacillus casei-01® (FIG. 4), Lactobacillus rhamnosus (FIG. 5), Lactobacillus rhamnosus GG (FIG. 6), Pediococcus pentosaceus (FIG. 7), Lactobacillus farciminis (FIG. 8), and Lactobacillus acidophilus (FIG. 9) that were identified in Example 2 was inoculated in each of the media and cultured at 37° C. for 0, 5, 10, 24, and 48 hours. Then, a live cell count thereof was measured, such that a growth curve of each of the strains was obtained.

L. farciminis = assay: Capacity of using tagatose: live cell count after culture in minimal medium with added sugar; type: cell-based, Lactobacillus farciminis; details: strain 18 (L. farciminis)
Protocol: (§1) Pure culture solutions (1% culture solution in a stationary-phase in which a cell count of each of the strains is about 10^8 to 10^9 cfu/ml) of a total of 385 lactic acid bacteria strains were inoculated in selective media, respectively, and cultured in an incubator at 37° C. for 18 hours, followed by sub-culturing three times. Then, experiments proceeded at a state in which viability of the strain was optimal.
(§2) In order to evaluate the capacity of using tagatose of each of the lactic acid bacteria, a minimal medium composed of 5 g of peptone, 2.5 g of sodium acetate trihydrate, 0.5 ml of magnesium sulfate heptahydrate, 0.5 ml of manganese sulfate tetrahydrate, 5 ml of Tween 80, 1 g of diammonium citrate, 1 g of dipotassium phosphate, and 480 ml of distilled water was used. […]
(§3) 1% of each of the lactic acid bacteria strains cultured as described above was inoculated in the prepared medium and cultured in an incubator at 37° C. for 24 hours. Thereafter, absorbance of each of the cultured strains was measured using an ELISA reader, and a cell count was measured through plate culture using a dilution solution, thereby evaluating the capacity of using tagatose.

P. pentosaceus = assay: as above; type: cell-based, Pediococcus pentosaceus; details: for Log10 Value of Live Cell Count: 24h, 37° C., minimal medium with the named sugar; for Tagatose/Glucose: ratio of 24h log10 live cell counts
Protocol: as §1
(§4) In order to evaluate the capacity of using tagatose of each of the lactic acid bacteria, a minimal medium composed of 5 g of peptone, 2.5 g of sodium acetate trihydrate, 0.5 ml of magnesium sulfate heptahydrate, 0.5 ml of manganese sulfate tetrahydrate, 5 ml of Tween 80, 1 g of diammonium citrate, 1 g of dipotassium phosphate, and 480 ml of distilled water was used.
(§5) After the medium was sterilized at 121° C. for 15 minutes and divided into three samples, 20 ml of 50% tagatose solution, 20 ml of 50% glucose solution, and 20 ml of 50% fructooligosaccharide solution (FOS) were added to each of the three samples, thereby preparing liquid media.
as §3

L. rhamnosus = assay: as above; type: cell-based, Lactobacillus rhamnosus; details: for Log10 Value of Live Cell Count: 24h, 37° C., minimal medium with the named sugar; for Tagatose/Glucose: ratio of 24h log10 live cell counts
Protocol: as §1, §4, §5, §3

L. rhamnosus GG = assay: as above; type: cell-based, Lactobacillus rhamnosus; details: for Log10 Value of Live Cell Count: 24h, 37° C., minimal medium with the named sugar; for Tagatose/Glucose: ratio of 24h log10 live cell counts
Protocol: as §1, §4, §5, §3

L. acidophilus = assay: as above; type: cell-based, Lactobacillus acidophilus; details: strain 19 (L. acidophilus)
Protocol: as §1, §2, §3

L. casei = assay: as above; type: cell-based, Lactobacillus casei; details: for Log10 Value of Live Cell Count: 24h, 37° C., minimal medium with the named sugar; for Tagatose/Glucose: ratio of 24h log10 live cell counts
Protocol: as §1, §4, §5, §3

L. casei-01® = assay: as above; type: cell-based, Lactobacillus casei
Protocol: as §1, §4, §5, §3

L. casei Shirota = assay: as above; type: cell-based, Lactobacillus casei
Protocol: as §1, §4, §5, §3

L. casei DN114001 = assay: as above; type: cell-based, Lactobacillus casei
Protocol: as §1, §4, §5, §3

[2] = 24h, 37° C., minimal medium with the named sugar
[3] = ratio of 24h log10 live cell counts

OC[C@@H](O)[C@@H](O[C@@H]1O[C@H](CO)[C@H](O)[C@H](O)[C@H]1O)[C@H](O)[C@@H](O)CO [lactitol]
capacity of using the sugar (comparison of growth curves) [1]: low

O=C(CO)[C@@H](O)[C@@H](O)[C@H](O)CO [Tagatose, tagatose]
Log10 Value of Live Cell Count (L. farciminis; [2]): 8.601
Tagatose/Glucose (L. farciminis; [3]): 99.2%
Log10 Value of Live Cell Count (P. pentosaceus; strain 16 (P. pentosaceus)): 8.798
Tagatose/Glucose (P. pentosaceus; strain 16 (P. pentosaceus)): 99.1%
Log10 Value of Live Cell Count (P. pentosaceus; strain 17 (P. pentosaceus)): 8.953
Tagatose/Glucose (P. pentosaceus; strain 17 (P. pentosaceus)): 98.8%
Log10 Value of Live Cell Count (L. rhamnosus; strain 10 (L. rhamnosus)): 7.939
Tagatose/Glucose (L. rhamnosus; strain 10 (L. rhamnosus)): 98.5%
Log10 Value of Live Cell Count (L. rhamnosus; strain 11 (L. rhamnosus)): 8.031
Tagatose/Glucose (L. rhamnosus; strain 11 (L. rhamnosus)): 99.2%
Log10 Value of Live Cell Count (L. rhamnosus; strain 12 (L. rhamnosus)): 8.059
Tagatose/Glucose (L. rhamnosus; strain 12 (L. rhamnosus)): 98.5%
Log10 Value of Live Cell Count (L. rhamnosus; strain 13 (L. rhamnosus)): 8.169
Tagatose/Glucose (L. rhamnosus; strain 13 (L. rhamnosus)): 99.5%
capacity of using tagatose (L. rhamnosus GG; L. rhamnosus GG, as compared to the other strains of Table 1): significantly excellent capacity of using tagatose
Log10 Value of Live Cell Count (L. rhamnosus GG; strain 14 (L. rhamnosus GG)): 8.548
Tagatose/Glucose (L. rhamnosus GG; strain 14 (L. rhamnosus GG)): 105.0%
Log10 Value of Live Cell Count (L. rhamnosus GG; strain 15 (L. rhamnosus GG)): 8.822
Tagatose/Glucose (L. rhamnosus GG; strain 15 (L. rhamnosus GG)): 103.5%
Log10 Value of Live Cell Count (L. acidophilus; [2]): 7.913
Tagatose/Glucose (L. acidophilus; [3]): 98.4%
Log10 Value of Live Cell Count (L. casei; strain 1 (L. casei)): 7.882
Tagatose/Glucose (L. casei; strain 1 (L. casei)): 100.3%
Log10 Value of Live Cell Count (L. casei; strain 2 (L. casei)): 8.137
Tagatose/Glucose (L. casei; strain 2 (L. casei)): 100.1%
Log10 Value of Live Cell Count (L. casei; strain 3 (L. casei)): 8.240
Tagatose/Glucose (L. casei; strain 3 (L. casei)): 99.6%
Log10 Value of Live Cell Count (L. casei; strain 4 (L. casei)): 8.424
Tagatose/Glucose (L. casei; strain 4 (L. casei)): 99.0%
Log10 Value of Live Cell Count (L. casei; strain 5 (L. casei)): 8.449
Tagatose/Glucose (L. casei; strain 5 (L. casei)): 93.1%
Log10 Value of Live Cell Count (L. casei; strain 6 (L. casei)): 8.767
Tagatose/Glucose (L. casei; strain 6 (L. casei)): 98.8%
capacity of using tagatose (L. casei-01®; L. casei-01, as compared to the other strains of Table 1): significantly excellent capacity of using tagatose
Log10 Value of Live Cell Count (L. casei-01®; strain 9 (L. casei-01®), 24h, 37° C., minimal medium with the named sugar): 9.068
Tagatose/Glucose (L. casei-01®; strain 9 (L. casei-01®), ratio of 24h log10 live cell counts): 101.4%
capacity of using tagatose (L. casei Shirota; L. casei Shirota, as compared to the other strains of Table 1): significantly excellent capacity of using tagatose
Log10 Value of Live Cell Count (L. casei Shirota; strain 7 (L. casei Shirota), 24h, 37° C., minimal medium with the named sugar): 9.054
Tagatose/Glucose (L. casei Shirota; strain 7 (L. casei Shirota), ratio of 24h log10 live cell counts): 101.4%
capacity of using tagatose (L. casei DN114001; L. casei DN114001, as compared to the other strains of Table 1): significantly excellent capacity of using tagatose
Log10 Value of Live Cell Count (L. casei DN114001; strain 8 (L. casei DN114001), 24h, 37° C., minimal medium with the named sugar): 8.953
Tagatose/Glucose (L. casei DN114001; strain 8 (L. casei DN114001), ratio of 24h log10 live cell counts): 101.7%
